Results taken from patent US20250275940A1, “PTEROSTILBENE AND SILIBININ FOR PREVENTING, AMELIORATING OR REDUCING RADIATION-INDUCED DISEASES” (UNIVERSITAT DE VALÈNCIA, priority 2021, published 2025).
Where two headings read alike, the source gives them in different places.

Legend:
[1] = tested on: Swiss albino mice subjected to whole-body γ irradiation; assay: Survival of mice subjected to whole-body γ irradiation (LD50/30); format: in vivo; details: 6 days after γ radiation (LD50/30), compounds administered orally, FIG. 2A
Excerpt: Swiss albino mice (male, 9-10 weeks old, 30-32 g) were obtained from Charles River Laboratories (Wilmington, MA). This strain is among the most common used in radiation studies (Williams 2010). Mice were fed with a nutritionally complete diet (standard diet, SD) before irradiation. This was A03 from Panlab (Barcelona, Spain), which has 3,200 kcal/kg and the following nutritional composition: crude protein, 23.5%; crude fat, 4.3%; crude fiber, 3.7%; and carbohydrates, 51.1%; vitamins and minerals were provided as in the NIH-7 open formula for rat and mouse. This diet meets the dietary allowances recommended for adult mice by the American Institute of Nutrition. The animals were fed ad libitum and kept in individual metabolic cages, in which body weight and food ingestion were monitored daily. The animal room was maintained at 22° C. on a 12 h light/12 h dark cycle. Ad libitum intake of drinking water was also allowed. Care of irradiated mice followed the recommendation of the Robert Wood Johnson Medical School (Piscataway, NJ) for mouse total body irradiation (policy 15), which includes: a) use of antibiotics in the drinking water (134 mg ampicillin/kg/day, 40 mg baytril/kg/day, and 220/42 mg sulfamethoxazole/trimethoprim/kg/day), b) making drinking water readily available, c) Napa nectar Systems Engineering Lab Group Inc., Napa, CA) provided on the bottom of the cage during the first 14 days and replaced daily, d) provision of softened food served in a small Petri dish on the cage floor, e) completely sterile environment (cage, food, and water) to avoid potential immunosuppression-associated infections. A free-standing wheel inside the cage was also included to facilitate the physical exercise of the animals. All experiments were started at 10.00 h to minimize possible circadian variations. Procedures involving animals were in compliance with international laws and policies (EEC Directive 86/609, OJ L 358. 1, Dec. 12, 1987; and NIH Guide for the Care and Use of Laboratory Animals, NIH Publ. No. 85-23, 1985). Mice were subjected to g-radiation (^137Cs) (total body irradiation, TBI) in a BIOBEAM 8000 (Gamma-Service Medical GmbH, Leipzig, Germany). Single fraction radiotherapy, at total doses ranging from approx. 5.0 to 10.0 Gy, was administered at a rate of approx. […]. The irradiation distance from the source was limited to 12 cm. Radiation dosimetry was controlled using alanine dosimeters from Bruker (Billerica, MA) with dosimetry variation of +/−0.09 Gy. […] NR (nicotinamide riboside, 3-aminocarbonyl-1-b-D-ribofuranosyl-pyridinium, Elysium Health, Inc., New York, NY) was dissolved in vaccination-grade water, and the pH of the solution neutralized (pH 7.0) before oral administration (185 mg/kg×day, Obrador 2020). FSL-1 (InvivoGen, San Diego, CA) was resuspended in sterile vaccination-grade water, and administered IP (0.25 mg/kg×day, the volume administered was of […] depending on the weight of the mouse, as recommended by Kurkjian 2017). Pharmaceutical grade amifostine (Ethyol) was obtained from Cumberland Pharmaceuticals (Nashville, TN) as 500 mg sterile lyophilized powder vial, and reconstituted with physiological saline prior to use.
First, the effects of γ radiation and mice survival were studied. […] Mice received whole-body γ radiation (one single dose; ^137Cs, 0.5-0.6 Gy/min; Biobeam 8000, GSM GmbH). One Gy=absorption of 1 J of energy/kg of matter.
Next, the thirty-days survival of mice treated with γ rays (LD50/30) and pterostilbene (PT) was analysed (FIG. 1B).

[2] = Plasma and extravascular levels of pterostilbene after oral administration; format: in vivo; details: mice, 200 mg Pter/kg b.w. oral
Method: Plasma and extravascular levels of pterostilbene after its oral administration to mice were studied. Mice were treated with 200 mg Pter/kg b.w. A group of 4-5 animals was sacrificed per each time point. Pter was dissolved in 2-hydroxypropyl-b-cyclodextrin, then suspended in 0.3% carboxymethylcellulose. Nondetectable=n.d. * P<0.1 comparing data obtained at 10-1440 min versus those found at 5 min.

[3] = PT, SIL and NAD+ levels in circulating blood; details: treated and irradiated mice, FIG. 10A
Method: Briefly, samples were analyzed through HPLC (Ultimate 3000, Thermo Fisher Scientific) and MS/MS (Waters TQ detector triple quadrupole) systems on a Hypurity™ C18 column (50×4.6 mm) using an injection volume of 5 μL. The mobile phases consisted of water (A) and acetonitrile (B). […] MS/MS data acquisition was performed under negative electrospray ionization mode. […] The fragmentary voltage was 150 V, and the collision energy 15 eV. Tissue sample preparation was as described for determination of PTER levels (above).
Whole-blood samples (0.5 ml) were collected in sodium citrate tubes at 4° C. Then a whole-blood aliquot of 0.1 ml was transferred to a cryovial containing 0.9 ml of 0.5 M ice-cold perchloric acid to lyse all blood cells. Samples were centrifuged at 10,000 g×10 min (4° C.). Supernatants were stored at −80° C. until analyzed.

[4] = tested on: Swiss albino mice subjected to whole-body γ irradiation; assay: Survival of mice subjected to whole-body γ irradiation (LD50/30); format: in vivo; details: dose of 100 mg/kg, orally once per day, 5 days before and 2 days after γ irradiation (7.2 Gy), FIG. 1B
[5] = background statement; cited from earlier work
[6] = Swiss albino, mouse, brain, 200 mg/kg b.w., read-out: Pter in Brain
[7] = Swiss albino, mouse, kidney, 200 mg/kg b.w., read-out: Pter in Kidney
[8] = Swiss albino, mouse, liver, 200 mg/kg b.w., read-out: Pter in Liver
[9] = Swiss albino, mouse, lung, 200 mg/kg b.w., read-out: Pter in Lung
[10] = Swiss albino, mouse, plasma, 200 mg/kg b.w., read-out: Pter in Plasma

COc1cc(/C=C/c2ccc(O)cc2)cc(OC)c1 [PT, 3,5-dimethoxy-4′-hydroxystilbene]
survival [1]: around 100%
concentration at 5 min [2, 6]: 2 ± 1 µM
concentration at 10 min [2, 6]: 6 ± 2 µM
concentration at 30 min [2, 6]: 10 ± 3 µM
concentration at 60 min [2, 6]: 24 ± 7 µM
concentration at 120 min [2, 6]: 14 ± 4 µM
concentration at 240 min [2, 6]: 8 ± 3 µM
concentration at 480 min [2, 6]: 3 ± 1 µM
concentration at 5 min [2, 7]: 1 ± 0.5 µM
concentration at 10 min [2, 7]: 4 ± 2 µM
concentration at 30 min [2, 7]: 6 ± 3 µM
concentration at 60 min [2, 7]: 10 ± 4 µM
concentration at 120 min [2, 7]: 8 ± 2 µM
concentration at 240 min [2, 7]: 2 ± 0.5 µM
concentration at 5 min [2, 8]: 3 ± 1 µM
concentration at 10 min [2, 8]: 8 ± 3 µM
concentration at 30 min [2, 8]: 11 ± 3 µM
concentration at 60 min [2, 8]: 17 ± 5 µM
concentration at 120 min [2, 8]: 12 ± 4 µM
concentration at 240 min [2, 8]: 7 ± 2 µM
concentration at 480 min [2, 8]: 1 ± 0.5 µM
concentration at 5 min [2, 9]: 7 ± 2 µM
concentration at 10 min [2, 9]: 15 ± 6 µM
concentration at 30 min [2, 9]: 23 ± 5 µM
concentration at 60 min [2, 9]: 35 ± 8 µM
concentration at 120 min [2, 9]: 21 ± 4 µM
concentration at 240 min [2, 9]: 12 ± 3 µM
concentration at 480 min [2, 9]: 2 ± 1 µM
concentration at 5 min [2, 10]: 5 ± 2 µM
concentration at 10 min [2, 10]: 18 ± 4 µM
concentration at 30 min [2, 10]: 55 ± 9 µM
concentration at 60 min [2, 10]: 98 ± 17 µM
concentration at 120 min [2, 10]: 46 ± 12 µM
concentration at 240 min [2, 10]: 21 ± 6 µM
concentration at 480 min [2, 10]: 14 ± 5 µM
concentration at 720 min ([2]; Swiss albino, mouse, plasma, 200 mg/kg b.w., 720 min): 1 ± 0.5 µM
time after administration at which Pterostilbene levels peak ([2]; all tissues studied): 60 min
PT levels in circulating blood, 30 min vs 120 min [3]: higher 30 min after
effect on improving survival (60 days) among doses [4]: best effect on improving survival
potency as antifungal agent relative to Resveratrol [5]: 60-100 times
